# Assay results published in patent US20230414628A1, “METHODS FOR TREATING DISEASES MEDIATED BY GLUTATHIONE PEROXIDASE 4” (priority 2022, published 2023).
# Read-outs that look alike come from different tables or passages of the source.
# Columns and labels:
# Format in all cases: cell-based, human
# [1] = tested on: GM09503 (derived from a healthy donor); experiment: CellTiter-Glo assay in GM09503 control cell line; details: 1 μM control, 72 hours
# Description: (§1) Compounds described herein were tested in three cell lines, RAG01 (derived from fibroblasts of a patient diagnosed with SSMD) fibroblasts, RAG02 (derived from fibroblasts of the patient's parent), and GM09503 (from supplier Corriell) (derived from a healthy donor) to each generate 10-point concentration response curves (CRC). The three cell lines were each thawed seven (7) days prior to seeding. The RAG01 cells were thawed in a medium supplemented with a-tocopherol. Cells were passaged four (4) days prior to the seeding. The α-tocopherol was removed from the RAG01 cells. Cells were then seeded at 900 cells per well in 384-well plates. Two replicates were prepared for two independent (replicate) experiments. All plates were then incubated with compounds described herein for 72 hours, prior to CellTiter-Glo assay. The compounds were tested in 10-point concentration (CRCs) from 10 μM using 3.16×(half Log) dilutions. The assay was run using the CellTiter-Glo (Promega) following manufacturer's guidelines and luminescent spectrophotometric reading on PHERAstar FSX (BMG Labtech). […]
# (§2) The raw data was analyzed using Activity Base® software. The compounds were evaluated by efficacy (percentage effect) normalized to the vehicle control. The percentage effect (PE) was determined from the signal increase in comparison to the vehicle control according to the formula below: […]
# [2] = tested on: RAG02 (derived from fibroblasts of the patient's parent); experiment: CellTiter-Glo assay in RAG02 control cell line; details: 1 μM control, 72 hours
# Description: as §1, §2
# [3] = tested on: RAG01 (derived from fibroblasts of a patient diagnosed with SSMD) fibroblasts; experiment: CellTiter-Glo concentration response in RAG01 fibroblasts
# Description: Compounds described herein were tested in three cell lines, RAG01 (derived from fibroblasts of a patient diagnosed with SSMD) fibroblasts, RAG02 (derived from fibroblasts of the patient's parent), and GM09503 (from supplier Corriell) (derived from a healthy donor) to each generate 10-point concentration response curves (CRC). The three cell lines were each thawed seven (7) days prior to seeding. The RAG01 cells were thawed in a medium supplemented with a-tocopherol. Cells were passaged four (4) days prior to the seeding. The α-tocopherol was removed from the RAG01 cells. Cells were then seeded at 900 cells per well in 384-well plates. Two replicates were prepared for two independent (replicate) experiments. All plates were then incubated with compounds described herein for 72 hours, prior to CellTiter-Glo assay. […] The assay was run using the CellTiter-Glo (Promega) following manufacturer's guidelines and luminescent spectrophotometric reading on PHERAstar FSX (BMG Labtech). A 0.1% dimethylsulfoxide (DMSO) was used as a blank (vehicle control); and a 1 μM Ferrostatin-1 was used as a control (CTRL).
# as §2
# The percentage effect values were then plotted against log concentration of the drug to generate a concentration response curve. The curves were fitted using a four-parameter fit, and curve tops and hillslopes were fixed where required and justified.
# [4] = Homo sapiens, Fibroblast, RAG01 cell line, 72 hours incubation, CellTiter-Glo, percentage effect normalized to vehicle control, 10-point CRC from 10 μM, read-out: EC50
# [5] = RAG01 cell line, 72 hours incubation, CellTiter-Glo, percentage effect normalized to vehicle control, 10-point CRC from 10 μM, read-out: EC50
Molecule,"EC50 [3, 4] [nM]",further results
"CCOC(=O)c1ccc(NC2CCCCC2)c(N)c1 [Ferrostain-1, Ferrostatin-1]",–,effect of control compound on GM09503 cells [1]: No effect; effect of control compound on RAG02 cells [2]: No effect
"CCN1CCC(n2cc(CNc3cc(Cl)c4ncc(C#N)c(Nc5ccc(F)c(Cl)c5)c4c3)nn2)CC1 [compound 72, Cot inhibitor-2]",77,–
"O=C1NC(=O)c2cc(Nc3ccc(F)cc3)c(Nc3ccc(F)cc3)cc21 [compound 73, CGP 53353]",168,–
"COc1ccc2c(c1)c(C1=C(c3c[nH]c4ccccc34)C(=O)NC1=O)cn2CCCN(C)C [compound 74, Go 6983]",764,–
"CN1CCN(Cc2ccc(-c3cnc4[nH]cc(-c5ccc6[nH]ccc6c5)c4c3)cc2)CC1 [compound 75, URMC-099]",377,–
"COc1cc(N2CCC(N3CCN(C)CC3)CC2)ccc1Nc1ncc(Cl)c(Nc2ccccc2S(=O)(=O)C(C)C)n1 [compound 76, NVP-TAE684]",480,–
"CNC(=O)c1ccccc1Nc1cc(Nc2ccc(N3CCOCC3)cc2OC)ncc1C(F)(F)F [compound 77, PND-1186 (VS-4718)]",611,–
"O=C1Nc2cc(Br)ccc2/C1=C1/Nc2ccccc2/C1=N\O [compound 79, GSK-3-inhibitor-IX]",559,–
"CCOc1cc(N2CCC(O)CC2)ccc1Nc1ncc2c(n1)N(C1CCCC1)CCC(=O)N2C [compound 80, Mps1-IN-1]",452,–
"Cc1cc(N2CCOCC2)ccc1Nc1nc(NC2CCCCC2)c2nc[nH]c2n1 [compound 81, MPI-0479605]",688,–
"Cc1ccc(NC(=O)c2ccc(CN3CCN(C)CC3)cc2)cc1Nc1nc(-c2cccnc2)cs1 [compound 82, Masitinib (AB1010)]",916,–
"Cc1ccccc1C(=O)c1ccc(Nc2ccc(Br)cc2N)cc1Cl [compound 83, EO-1428]",1040,–
"NC(=O)c1nc(Nc2ccccc2)sc1NC(=O)C1CCCCC1 [compound 85, UNC-3230]",1240,–
"CC1(C)CNc2cc(NC(=O)c3cccnc3NCc3ccncc3)ccc21 [compound 86, Motesanib]",1460,–
"Cc1ccc(F)c(NC(=O)Nc2ccc(-c3cccc4[nH]nc(N)c34)cc2)c1 [compound 87, Linifanib]",1650,–
"Cc1c(NC(=O)OC[C@@H]2COCCN2)cn2ncnc(Nc3ccc4c(cnn4Cc4cccc(F)c4)c3)c12 [compound 88, BMS-599626]",2300,–
"CCCCCCCCCCC(O)C1C=CC2C(=O)N(c3ccccc3)C(=O)C2N1Nc1ccc([N+](=O)[O-])cc1 (centres unmarked) [compound 89, A12B4C3]",–,"EC50 [3, 5]: 2670 nM"
"CC(C)(C)C(=O)/C(=N/c1ccc(Cl)cc1)NNc1ccc(Cl)cc1 [compound 90, TY 52156]",117,–
"O=C1c2cccnc2C(=O)C(NCCN2CCOCC2)C1Cl (centres unmarked) [compound 91, NSC 663284]",268,–
"COc1ccc2nc3cc(Cl)ccc3c(Nc3cc(CN4CCCC4)c(O)c(CN4CCCC4)c3)c2n1 [compound 92, pyronaridine]",416,–

Molecule,"EC50 [3, 4] [nM]",further results
"COC(=O)c1sccc1S(=O)(=O)Nc1ccc(Nc2ccccc2)cc1OC [compound 93, GSK-0660]",438,–
"OC(CNc1ccccc1)Cn1c2ccc(Br)cc2c2cc(Br)ccc21 (centres unmarked) [compound 94, P7C3]",652,–
"Cc1cccc(Nc2nc(-c3ccncc3)cs2)c1 [compound 95, STF-62247]",739,–
"COc1ccc(-c2nc(-c3ccc(-c4cccc(Cl)c4)o3)[nH]c2-c2ccc(OC)cc2)cc1 [compound 96, neurodazine]",956,–
"c1ccc2c(Oc3nc(Nc4ccc(N5CCOCC5)cc4)c4ncn(C5CCCCC5)c4n3)cccc2c1 [compound 97, Purmorphamine]",1100,–
"C[C@@H]1CC(=O)c2c(ccc3c2C(=O)c2cccc(O)c2C3=O)C1 [compound 98, ochromycinone]",1150,–
"O=C1C=Cc2cc(Br)ccc2C1=O [compound 99, bonaphthone]",1260,–
"COC(=O)c1cc2c(C(F)(F)F)cc(-c3ccccc3)cc2n1O [compound 100, NHI-2]",–,"EC50 ([3]; Homo sapiens, Fibroblast, 72 h): 1310 nM"
"Cc1[nH]c(/C=C2\C(=O)Nc3cc(-c4ccccc4)ccc32)c(C)c1CCC(=O)O [compound 101, su-16f]",1380,–
"N#Cc1ccc(-c2csc(NN=C3CCCC3)n2)cc1 [compound 103, remodelin]",1560,–
"COC(=O)/C=C/c1cccc(N(Cc2ccc(-c3ccc(N(C)C)cc3)cc2)C(=O)C2CCCCC2)c1 [compound 104, Fexaramine]",1720,–
"CC(C)(C)c1cc(C(C)(C)C)c(NC(=O)c2c[nH]c3ccccc3c2=O)cc1O [compound 105, ivacaftor]",1840,–
"Cc1nn(C)c2nc(NNC(=O)Nc3cc(Cl)nc(Cl)c3)cc(C(C)C)c12 [compound 106, JTE-013]",2470,–
"COc1cc(OC)cc(C(=O)NNC(=O)Nc2cccc3ccccc23)c1 [compound 107, TC-O-9311]",3550,–
"Cn1cc(/C=C/C(=O)c2cccc(F)c2)cc1/C=C/C(=O)NO [compound 108, MC1568]",3770,–
"COc1ccc2c3c([nH]c2c1)[C@H](CC(C)C)N1C(=O)[C@H](CCC(=O)OC(C)(C)C)NC(=O)[C@@H]1C3 [compound 109, Ko 143]",3940,–
"CCC[C@H](N[C@H]1CCc2cc(F)cc(F)c2C1)C(=O)Nc1cn(C(C)(C)CNCC(C)(C)C)cn1 [compound 110, Nirogacestat]",5560,–
butylated hydroxyanisole [compound 11],–,"EC50 [3, 5]: 1180 nM"
licochalcone [compound 21],–,"EC50 [3, 5]: 1070 nM"
piperacetazine [compound 45],–,"EC50 [3, 5]: 1580 nM"
